Legend:
Assay type in all cases: in vivo
[1] = system: barnyardgrass (Echinochloa crus-galli); experiment: Test B flooded paddy; conditions: 250 g ai/ha, Flood, 13 to 15 days, scale 0 (no effect) to 100 (complete control)
Source text: (§1) At time of treatment, test pots were flooded to 3 cm above the soil surface, treated by application of test compounds directly to the paddy water, and then maintained at that water depth for the duration of the test. Treated plants and controls were maintained in a greenhouse for 13 to 15 days, after which time all species were compared to controls and visually evaluated. […] A dash (-) response means no test result.

[2] = system: ducksalad (Heteranthera limosa); experiment: Test B flooded paddy; conditions: 250 g ai/ha, Flood, 13 to 15 days, scale 0 (no effect) to 100 (complete control)
Source text: as §1

rice (Oryza sativa) = experiment: Test B flooded paddy; conditions: 250 g ai/ha, Flood, 13 to 15 days, scale 0 (no effect) to 100 (complete control)
Source text: as §1

[3] = system: sedge, umbrella (small-flower umbrella sedge, Cyperus difformis); experiment: Test B flooded paddy; conditions: 250 g ai/ha, Flood, 13 to 15 days, scale 0 (no effect) to 100 (complete control)
Source text: as §1

[4] = system: Italian ryegrass (Lolium multiflorum); experiment: Test A preemergence; conditions: 0 to 100 scale (0 no effect, 100 complete control)
Source text: (§2) Seeds of plant species selected from barnyardgrass (Echinochloa crus-galli), kochia (Kochia scoparia), ragweed (common ragweed, Ambrosia elatior), Italian ryegrass (Lolium multiflorum), large (Lg) crabgrass (Digitaria sanguinalis), giant foxtail (Setaria faberii), morningglory (Ipomoea spp.), pigweed (Amaranthus retroflexus), velvetleaf (Abutilon theophrasti), wheat (Triticum aestivum), and corn (Zea mays) were planted into a blend of loam soil and sand and treated preemergence with a directed soil spray using test chemicals formulated in a non-phytotoxic solvent mixture which included a surfactant.
(§3) At the same time, plants selected from these crop and weed species and also blackgrass (Alopecurus myosuroides), and galium (catchweed bedstraw, Galium aparine) were planted in pots containing the same blend of loam soil and sand and treated with postemergence applications of test chemicals formulated in the same manner. Plants ranged in height from 2 to 10 cm and were in the one- to two-leaf stage for the postemergence treatment. Treated plants and untreated controls were maintained in a greenhouse for approximately 10 days, after which time all treated plants were compared to untreated controls and visually evaluated for injury. Plant response ratings, summarized in Table A, are based on a 0 to 100 scale where 0 is no effect and 100 is complete control. A dash (-) response means no test result.

[5] = system: barnyardgrass (Echinochloa crus-galli); experiment: Test A preemergence; conditions: for Barnyardgrass plant response rating: 0 to 100 scale (0 no effect, 100 complete control); for Plant response rating, Barnyardgrass: 0 to 100 scale
Source text: as §2, §3

[6] = system: giant foxtail (Setaria faberii); experiment: Test A preemergence; conditions: 0 to 100 scale (0 no effect, 100 complete control)
Source text: as §2, §3

kochia (Kochia scoparia) [7] = experiment: Test A preemergence; conditions: 0 to 100 scale (0 no effect, 100 complete control)
Source text: as §2, §3

[8] = system: pigweed (Amaranthus retroflexus); experiment: Test A preemergence; conditions: 0 to 100 scale (0 no effect, 100 complete control)
Source text: as §2, §3

[9] = system: ragweed (common ragweed, Ambrosia elatior); experiment: Test A preemergence; conditions: 0 to 100 scale (0 no effect, 100 complete control)
Source text: as §2, §3

[10] = system: Italian ryegrass (Lolium multiflorum); experiment: Test A postemergence; conditions: 0 to 100 scale
Source text: as §2, §3

[11] = system: barnyardgrass (Echinochloa crus-galli); experiment: Test A postemergence; conditions: 0 to 100 scale
Source text: as §2, §3

[12] = system: blackgrass (Alopecurus myosuroides); experiment: Test A postemergence; conditions: 0 to 100 scale
Source text: as §2, §3

corn (Zea mays) = experiment: Test A postemergence; conditions: 0 to 100 scale
Source text: as §2, §3

[13] = system: galium (catchweed bedstraw, Galium aparine); experiment: Test A postemergence; conditions: 0 to 100 scale
Source text: as §2, §3

[14] = system: giant foxtail (Setaria faberii); experiment: Test A postemergence; conditions: 0 to 100 scale
Source text: as §2, §3

kochia (Kochia scoparia) [15] = experiment: Test A postemergence; conditions: 0 to 100 scale
Source text: as §2, §3

[16] = system: pigweed (Amaranthus retroflexus); experiment: Test A postemergence; conditions: 0 to 100 scale
Source text: as §2, §3

[17] = system: ragweed (common ragweed, Ambrosia elatior); experiment: Test A postemergence; conditions: 0 to 100 scale
Source text: as §2, §3

[18] = system: wheat (Triticum aestivum); experiment: Test A postemergence; conditions: 0 to 100 scale
Source text: as §2, §3

Row | SMILES | Plant response rating, Barnyardgrass [1] | Plant response rating, Ducksalad [2] | Plant response rating, Rice (rice (Oryza sativa)) | Plant response rating, Sedge, Umbrella [3] | Ryegrass, Italian plant response rating ([4]; 31 g ai/ha) | Ryegrass, Italian plant response rating ([4]; 125 g ai/ha) | Barnyardgrass plant response rating ([5]; 31 g ai/ha) | Foxtail, Giant plant response rating ([6]; 31 g ai/ha) | Foxtail, Giant plant response rating ([6]; 125 g ai/ha) | Kochia plant response rating (kochia (Kochia scoparia) [7]; 31 g ai/ha) | Kochia plant response rating (kochia (Kochia scoparia) [7]; 125 g ai/ha) | Pigweed plant response rating ([8]; 31 g ai/ha) | Pigweed plant response rating ([8]; 125 g ai/ha) | Ragweed plant response rating ([9]; 31 g ai/ha) | Ragweed plant response rating ([9]; 125 g ai/ha) | Plant response rating, Ryegrass, Italian ([10]; 31 g ai/ha) | Plant response rating, Ryegrass, Italian ([10]; 125 g ai/ha) | Plant response rating, Barnyardgrass ([11]; 31 g ai/ha) | Plant response rating, Barnyardgrass ([11]; 125 g ai/ha) | Plant response rating, Blackgrass ([12]; 31 g ai/ha) | other results
1 | N#Cc1cccc(Oc2ncc(Cl)cn2)c1Oc1ccc(OC(F)(F)F)cc1 [Compound 33] | 0 | 0 | 0 | 0 | 0 | 0 | 0 | 10 | 40 | 0 | 0 | 0 | 30 | 0 | 0 | 0 | 10 | 0 | 10 | 0 | Plant response rating, Barnyardgrass ([5]; 125 g ai/ha): 10; Plant response rating, Blackgrass ([12]; 125 g ai/ha): 10; Plant response rating, Corn (corn (Zea mays); 31 g ai/ha): 0; Plant response rating, Corn (corn (Zea mays); 125 g ai/ha): 10; Plant response rating, Galium ([13]; 31 g ai/ha): 10; Plant response rating, Galium ([13]; 125 g ai/ha): 30; Plant response rating, Foxtail, Giant ([14]; 31 g ai/ha): 10; Plant response rating, Foxtail, Giant ([14]; 125 g ai/ha): 20; Plant response rating, Kochia (kochia (Kochia scoparia) [15]; 31 g ai/ha): 20; Plant response rating, Kochia (kochia (Kochia scoparia) [15]; 125 g ai/ha): 40; Plant response rating, Pigweed ([16]; 31 g ai/ha): 30; Plant response rating, Pigweed ([16]; 125 g ai/ha): 80; Plant response rating, Ragweed ([17]; 31 g ai/ha): 0; Plant response rating, Ragweed ([17]; 125 g ai/ha): 10; Plant response rating, Wheat ([18]; 31 g ai/ha): 0; Plant response rating, Wheat ([18]; 125 g ai/ha): 0
2 | N#Cc1cccc(Oc2ncc(C(F)(F)F)cn2)c1Oc1ncc(C(F)(F)F)cn1 [Compound 35] | 0 | 60 | 40 | 60 | 0 | 10 | 0 | 30 | 90 | 0 | 60 | 100 | 100 | 0 | 10 | 0 | 30 | 0 | 40 | 10 | Plant response rating, Barnyardgrass ([5]; 125 g ai/ha): 50; Plant response rating, Blackgrass ([12]; 125 g ai/ha): 50; Plant response rating, Corn (corn (Zea mays); 31 g ai/ha): 0; Plant response rating, Corn (corn (Zea mays); 125 g ai/ha): 30; Plant response rating, Galium ([13]; 31 g ai/ha): 40; Plant response rating, Galium ([13]; 125 g ai/ha): 70; Plant response rating, Foxtail, Giant ([14]; 31 g ai/ha): 0; Plant response rating, Foxtail, Giant ([14]; 125 g ai/ha): 20; Plant response rating, Kochia (kochia (Kochia scoparia) [15]; 31 g ai/ha): 60; Plant response rating, Kochia (kochia (Kochia scoparia) [15]; 125 g ai/ha): 90; Plant response rating, Pigweed ([16]; 31 g ai/ha): 70; Plant response rating, Pigweed ([16]; 125 g ai/ha): 100; Plant response rating, Ragweed ([17]; 31 g ai/ha): 10; Plant response rating, Ragweed ([17]; 125 g ai/ha): 20; Plant response rating, Wheat ([18]; 31 g ai/ha): 0; Plant response rating, Wheat ([18]; 125 g ai/ha): 0
3 | Fc1ccc(Oc2ccc(C(F)(F)F)cn2)c(Oc2ncc(Cl)cn2)c1 [Compound 45, 5-chloro-2-[5-fluoro-[2-[5-(trifluoromethyl)pyridin-2-yl]oxy]phenoxy]pyrimidine] | 0 | 75 | 0 | 70 | 0 | 0 | 0 | 30 | 100 | 0 | 10 | 0 | 0 | 0 | 10 | 0 | 0 | 0 | 0 | 0 | Barnyardgrass plant response rating ([5]; 125 g ai/ha): 30; Plant response rating, Blackgrass ([12]; 125 g ai/ha): 30; Plant response rating, Corn (corn (Zea mays); 31 g ai/ha): 0; Plant response rating, Corn (corn (Zea mays); 125 g ai/ha): 30; Plant response rating, Galium ([13]; 31 g ai/ha): 60; Plant response rating, Galium ([13]; 125 g ai/ha): 70; Plant response rating, Foxtail, Giant ([14]; 31 g ai/ha): 0; Plant response rating, Foxtail, Giant ([14]; 125 g ai/ha): 0; Plant response rating, Kochia (kochia (Kochia scoparia) [15]; 31 g ai/ha): 20; Plant response rating, Kochia (kochia (Kochia scoparia) [15]; 125 g ai/ha): 80; Plant response rating, Pigweed ([16]; 31 g ai/ha): 20; Plant response rating, Pigweed ([16]; 125 g ai/ha): 20; Plant response rating, Ragweed ([17]; 31 g ai/ha): 0; Plant response rating, Ragweed ([17]; 125 g ai/ha): 20; Plant response rating, Wheat ([18]; 31 g ai/ha): 0; Plant response rating, Wheat ([18]; 125 g ai/ha): 20
